Measurements taken from patent US20060068503A1, “Solid support membranes for ion channel arrays and sensors: application ro rapid screening of pharmacological compounds” (priority 2004, published 2006).

Tests used:
Kv1.5 K+ channel = target: T1, Kv1.5 K+ channel (Homo sapiens, UniProt P22460); assay: Whole cell patch clamp of dexamethasone-induced Kv1.5-transfected Ltk-cells; format: cell-based; details: Ltk-cells overexpressing Kv1.5, whole cell patch clamp
T1 construct: expressed in transfected cells; host or cells: Ltk- cells (mouse fibroblasts), stably transfected, expression induced with 2 uM dexamethasone
Description: Whole-cell Kv1.5 current recordings are made at room temperature via the gigaseal patch clamp technique using an Axopatch-1D amplifier (Axon Instruments, Foster City, Calif.). Ltk-cells overexpressing Kv1.5 channels are cultured for 24-72 hr, induced to express Kv1.5 channels by 24 hr incubation with 2 μM dexamethasone prior to use for patch clamp studies. Small, spherical cells approximately 10 microns in diameter are used for all patch recordings. Electrodes are made from TW-150F glass capillary tubes (World Precision Instruments, New Haven Conn.) and had resistances of 1.5-3.0 megohms when filled with internal solution containing: 110 Mm KCl, 5 mM K2ATP, 5 mM K4BAPTA, 1 mM MgCl2 and 10 mM HEPES, adjusted to pH 7.2 with KOH. The external solution contained: 130 mM NaCl, 4 mM KCl, 1.8 mM CaCl2 1 mM MgCl2, 10 mM HEPES, 10 mM glucose, adjusted to pH 7.4 with NaOH. Series resistance is compensated following rupture of the seal. Currents are sampled at 1 KHZ and filtered at 500 Hz. Cells are pulsed to +60 mV every 5 sec from a holding potential of −70 mV in 20 mV increments. […] Whole cell patch data are analyzed using Clampfit 8.0 in pCLAMP software (Axon Instruments). IC50 values for compounds are determined by nonlinear regression analysis using GraphPad Prism software (San Diego, Calif.).

[1] = target: T2, Kv1.5 K+ channels reconstituted on the SSM (Homo sapiens, UniProt P22460); assay: Kv1.5 K+ channel current on solid supported membrane (SSM); format: biochemical; details: for IC50: SSM-reconstituted channels, -80 mV, n=3, read-out: half-maximal inhibition of Kv1.5 K+ channel current, IC50
T2 construct: expressed in transfected cells; host or cells: Ltk- cells (mouse fibroblasts), stably transfected, expression induced with 2 uM dexamethasone
Description: An Ltk-cell line (mouse fibroblast cells) stably overexpressing Kv1.5 K+ channels under control of a dexamethasone promoter is used to prepare plasma membrane vesicles. Expression of Kv1.5 is induced in Ltk-cells by addition of dexamethasone to the medium. The dexamethasone-specific induction of channel expression is totally specific for Kv1.5 channels. Cells are grown in 2 μM dexamethasone for 24 hr prior to use. The cells are centrifuged for 5 min at 1000 rpm and resuspended in 1.0 ml of 20 mM HEPES (pH 7.5), 20 mM NaCl, 100 mM KCl, 1.0 mM EDTA, 0.02% NaN3, 1 mM PMSF, 10 μg/μl leupeptin, and 50 μg/μl aprotinin. After freeze-thawing twice, the membrane fragments/vesicles are collected following centrifugation at 12,000 g for 20 min at 4 °C. Membrane vesicles are also prepared from uninduced Ltk-cells (no dexamethasone incubation) transfected with Kv1.5 K+ channel cDNA and from non-transfected Lkt-cells.
Glass slides are first plated with chromium (5 nm), and then gold (150 nm). The slide is then immersed in ethanol containing 1% octadecanethiol (w/w) for 48 hr to attach alkyl thiol groups. After cleaning the gold plated slide with anhydrous isopropanol, epoxy resin is applied to the surface of the thiol-treated gold. Defects in the epoxy resin coating are used as the experimental chamber after coating the device with a lipid monolayer. […]
Membrane vesicles containing Kv1.5 K+ channels are added to the lipid coated wells containing 125 mM KCl/10 mM K-HEPES pH 7.4. Currents are measured with an HS-2A headstage and Gene Clamp 500 amplifier (Axon Instruments). […] Voltages ranging from −80 mV to +70 mV are applied in 10 mV increments for 200 msec, and electrical currents are recorded. […] Cation selectivity is measured by removing K+ from the medium and replacing it with Na+. Currents are first measured with K+ present. SSMs are then washed with K+-free, Na+-containing medium and currents were measured with Na+ present. Currents with K+ present are re-measured. […]

T2 sequence (P22460 whole entry): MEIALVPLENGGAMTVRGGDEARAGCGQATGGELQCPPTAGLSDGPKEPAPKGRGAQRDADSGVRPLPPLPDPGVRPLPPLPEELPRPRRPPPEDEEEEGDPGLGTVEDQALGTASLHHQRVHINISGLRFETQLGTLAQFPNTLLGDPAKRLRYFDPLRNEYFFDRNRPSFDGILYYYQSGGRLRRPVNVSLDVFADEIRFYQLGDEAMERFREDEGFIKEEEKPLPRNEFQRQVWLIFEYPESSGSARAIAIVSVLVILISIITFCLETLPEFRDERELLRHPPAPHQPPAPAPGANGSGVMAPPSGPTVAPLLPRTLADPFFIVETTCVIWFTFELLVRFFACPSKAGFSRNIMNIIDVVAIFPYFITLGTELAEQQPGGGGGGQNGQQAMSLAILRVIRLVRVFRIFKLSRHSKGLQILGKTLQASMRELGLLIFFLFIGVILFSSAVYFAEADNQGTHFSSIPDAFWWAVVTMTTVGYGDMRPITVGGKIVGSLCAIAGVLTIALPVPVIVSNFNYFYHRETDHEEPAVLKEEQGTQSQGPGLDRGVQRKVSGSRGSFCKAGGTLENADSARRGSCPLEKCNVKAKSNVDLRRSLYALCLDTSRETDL
T1 sequence (P22460 whole entry): as above

IC50 (Kv1.5 K+ channel) [nM]	IC50 [1] [nM]	effect on current at varying holding potentials ([1]; 100 nM, holding potentials outside the range of ±20 mV)	SMILES
137	265	–	COc1ccc(CCN2C(=O)CSC2c2ccc(C)c(C)c2)cc1 (centres unmarked) [Compound B, 2-(3,4-dimethyphenyl)-3-[2-(4-methoxyphenyl)ethyl]-thiazolidin-4-one]
170	218	current decreased	CCc1ccc(S(=O)(=O)N[C@H]2c3cc(NC(=O)c4cccc(OC)c4)ccc3C[C@@H]2O)cc1 [Compound A, N-[(2S,3S)-3-[[(4-ethylphenyl)sulfonyl]amino]-2,3-dihydro-2-hydroxy-1H-inden-5yl]-3-methoxybenzamide]
